Drawing on PMC7808732 (Biochemical and Biophysical Research Communications, 2021), this text covers Kd for one compound.

SMILES strings stand for the structures.

The assay has as its target RNA-binding domain (RBD) of the SARS-CoV-2 nucleocapsid (N) protein, RBD (44–180) (Severe acute respiratory syndrome coronavirus 2, UniProt P0DTC9). Kind of assay: biochemical.

What is called Kd is the concentration at which binding is half-saturated. Low values mean higher affinity, high ones lower affinity. Compound `Nc1ncnc2c1ncn2[C@@H]1O[C@H](COP(=O)(O)OP(=O)(O)OP(=O)(O)O)[C@@H](O)[C@H]1O` [ATP] had a Kd of 3.3 ± 0.4 mM.
